Reference: US20220402903A1, “ISOXAZOLINE COMPOUND WITH OPTICAL ACTIVITY AND USE” (SHENYANG SINOCHEM AGROCHEMICALS R&D CO., LTD., priority 2019, published 2022)

How the values were obtained:
Test in all cases: Greenhouse herbicidal activity, post-emergence stem and leaf spray
Assay type in all cases: in vivo
[1] = system: Abutilon theophrasti; conditions: for Control effect on Abutilon theophrasti: post-emergence, dose 4 g a.i./hm^2, visual, 0 = no control effect, 100% = weeds completely killed
Text: (§1) The test method of the herbicidal activity of the compound in the present invention is as follows:
(§2) Quantitative grass weed (Echinochloa crusgalli and Setaria viridis) and broad-leaved weed (Abutilon theophrasti and Zinnia elegans) seeds were sown in paper cups having a diameter of 7 cm and containing nutrient soil, after sowing, the seeds were covered with 1 cm of soil, the soil was pressed and watered, and then the seeds were cultivated in a greenhouse according to a conventional method. The grass weeds grew to 2-3 leaf stages, the broad-leaved weeds grew to 2-4 leaf stages, stem and leaves were sprayed. Before emergence, the soil was sprayed within 24 hours after sowing. According to the design dose of the test, spray treatment was carried out on a track-type crop sprayer (designed and produced by British Engineer Research Ltd.) (spray pressure is 1.95 kg/cm^2, spray volume is 500 L/hm^2 and track speed is 1.48 km/h). The test was repeated for three times. The test material was treated and then placed in an operation hall. The medicinal liquid was naturally dried in the shade, and then was placed in a greenhouse and managed according to the conventional method. The response of the weeds to the test compound was observed and recorded. After treatment, the control effects of the test compound on the weeds were visually inspected regularly.
(§3) The grading standards of the control effects: 0 represents no control effect and 100% represents that the weeds are completely killed or greatly controlled.

[2] = system: Echinochloa crusgalli; conditions: for Control effect on Echinochloa crusgalli: post-emergence, visual, 0 = no control effect, 100% = weeds completely killed
Text: as §1, §2, §3

[3] = system: Setaria viridis; conditions: for Control effect on Setaria viridis: post-emergence, visual, 0 = no control effect, 100% = weeds completely killed
Text: as §1, §2, §3

[4] = system: Zinnia elegans; conditions: for Control effect on Zinnia elegans: post-emergence, dose 4 g a.i./hm^2, visual, 0 = no control effect, 100% = weeds completely killed
Text: as §1, §2, §3

[5] = post-emergence treatment, dose 4-8 g a.i./hm^2

Row | Structure (SMILES) | Control effect on Abutilon theophrasti [1] | Control effect on Echinochloa crusgalli ([2]; dose 4 g a.i./hm^2) | Control effect on Echinochloa crusgalli ([2]; dose 8 g a.i./hm^2) | Control effect on Setaria viridis ([3]; dose 4 g a.i./hm^2) | Control effect on Setaria viridis ([3]; dose 8 g a.i./hm^2) | Control effect on Zinnia elegans [4] | Herbicidal activity on Abutilon theophrasti (in words) [1, 5] | Herbicidal activity on Echinochloa crusgalli (in words) [2, 5] | Herbicidal activity on Setaria viridi (in words) [3, 5] | Herbicidal activity on Zinnia elegans (in words) [4, 5]
1 | CCOC(=O)C1(C)CC(c2cc(-n3c(=O)cc(C(F)(F)F)n(C)c3=O)c(F)cc2Cl)=NO1 (stereo not shown) [CN105753853 Compound 6, reference compound] | 60% | 45% | 50% | 25% | 55% | 90% | – | – | – | –
2 | CCOC(=O)[C@]1(C)CC(c2cc(-n3c(=O)cc(C(F)(F)F)n(C)c3=O)c(F)cc2Cl)=NO1 [Compound 3] | 90% | 90% | 98% | 75% | 85% | 100% | high herbicidal activity | high herbicidal activity | high herbicidal activity | high herbicidal activity
